This is an account of results in patent publication US20150086530A1, “DOSING REGIMENS FOR THE TREATMENT OF POMPE DISEASE” (Amicus Therapeutics, Inc., priority 2012, published 2015).

One assay relates to glycogen (GAA substrate). In words: Tissue glycogen levels in GAA knock-out mice after repeat rhGAA with chaperone. The format is in vivo, mouse. Conditions: 21 days after last injection. As for the experimental part:
Twelve week old GAA KO mice were administered recombinant human GAA (Myozyme) 20 mg/kg i.v. every other week for 8 weeks. […]
Repeat rhGAA administration studies were conducted in GAA knock-out mice to assess effects on tissue glycogen levels.
Twelve week old GAA KO mice were administered 20 mg/kg i.v. recombinant human GAA (Myozyme) every other week for 8 weeks. […] Tissues were collected 21 days after the last dose of rhGAA and the level of glycogen (GAA substrate) was measured.

The next assay addresses GAA (Homo sapiens, UniProt P10253). Kind of assay: Physical stability of rhGAA in neutral pH buffer (thermal denaturation, enzymatic activity). Conditions: thermal denaturation and enzymatic activity. The format is biochemical. On the set-up: purchased Genzyme Corporation.
The mark [1] stands for this setting: co-administration with rhGAA 20 mg/kg IV every other week for 8 weeks.

For `OC[C@H]1NC[C@H](O)[C@@H](O)[C@@H]1O` [AT2220, (2R,3R,4R,5S)-2-hydroxymethyl-piperidine-3,4,5-triol], the tissue glycogen levels result with glycogen (GAA substrate) (10 or 30 mg/kg PO 30 min before rhGAA 20 mg/kg IV every other week for 8 weeks) is listed as “dose-dependent reduction”. Moreover, in the assay on glycogen (GAA substrate) (setting [1]), the “glycogen reduction vs rhGAA alone, biceps” value is recorded as roughly 1.4 fold; the “glycogen reduction vs rhGAA alone, diaphragm” value is recorded as roughly 1.6 fold; the “glycogen reduction vs rhGAA alone, gastrocnemius” value was roughly 2.7 fold; the “glycogen reduction vs rhGAA alone, heart” value was “approximately 2.3 fold”. In addition, in the assay on glycogen (GAA substrate) (setting [1]), the “glycogen reduction vs rhGAA alone, quadriceps” value was roughly 2.6 fold; the “glycogen reduction vs rhGAA alone, soleus” value is reported as roughly 1.2 fold; the “glycogen reduction vs rhGAA alone, tongue” value was roughly 1.3 fold; the “glycogen reduction vs rhGAA alone, triceps” value was roughly 2.2 fold. For the same compound, at GAA, the “physical stability of rhGAA” value is “significant concentration-dependent increases”.
